In patent US20080089851A1, “Brown Algae Cell Lyophilisate, Method For The Obtention Thereof” (BIOTECHMARINE, priority 2005, published 2008):
Values joined by “and” are separate entries in the source; they are usually repeats but may differ in a detail not shown here. Equal values may be shown once.

Key:
[1] = tested on: human keratinocytes in senescence; test: Transport of lipids (choline), human keratinocytes in senescence; type: cell-based; settings: for Capture of [^3H]choline: DPA 1 mM
Description: (§1) The obtained microsomes from human keratinocytes in culture were rinsed 3 times with 25 mM Tris buffer, then preincubated in 1 ml of the same buffer for 30 minutes at 37° C. This solution was then discarded and the microsomes were placed into the 25 mM Tris buffer containing [^3H] Choline with stirring in a water bath at 37° C. The capture of choline was stopped by addition of a lysis buffer containing (50 mM de Tris, 140 mM NaCl, 1.5 mM MgSO4, 0.5% Igepal-Ca-630, 0.2% SDS). The kinetics of incubation was performed between 30 and 120 seconds. Subsequently, the microsomes were rinsed 2 times with PBS then dissolved in NaOH (1M) at 4° C. over night. The radioactivity was determined with a scintillation counter.
7.3—Assessment of the Rate of Transport of Macromolecules at the Level of Human Keratinocytes in Senescence
The senescence is a phenomenon of cellular aging, where the cells are arrested in the phase G1 of the cell cycle and never enter the synthesis phase leading to the cell division. Senescent cells are characterized by their slow metabolism at synthesis and transport of macromolecules levels.
The cells in culture deprived of serum stop their growth, but continue to progress through the cell cycle until they reach the phase G1.
The assays were performed on keratinocytes, between the 8th and the 10th passage, in order to ensure the presence of senescent cells at control cells level.
The keratinocytes were seeded in multiwell plates (6 wells) at a rate of 10^5 cells per well in 3 ml of culture medium […] supplemented with EGF, hydrocortisone, insulin and gentamicyn. Afterwards they are maintained for 5 days in incubator under CO2.
7.3.2—Transport of Lipids
(§2) The membrane microsomes were separated by differential centrifugation.
The same protocol of capture of [3H] Choline was applied to the determination of the rate of transport of choline (cf. 6.1.2)

[2] = tested on: normal human keratinocytes; test: Transport of lipids (choline), normal human keratinocytes; type: cell-based; settings: for Capture of [^3H]choline: DPA 1 mM
Description: as §1
7.2—Assessment of the Rate of Transport of Macromolecules at the Level of Normal Human Keratinocytes
The applied method was that of explants allowing to obtain, from a biopsy of human skin, keratinocytes in primary cultures. The assays were carried out on keratinocytes between the 2nd and the 4th passage in order to ensure a reproductibility between the different experiences.
The keratinocytes were divided into multiwell plates (6 wells) at a rate of 10^5 cells per well in 1 ml of culture medium […] supplemented with insulin and hydrocortisone. The cells were incubated in the presence and absence of the investigated product.
7.2.2—Transport of Lipids
as §2
The same protocol of capture of [3H] choline was used for the determination of the speed of transport of choline (cf. 6.1.2)

[3] = tested on: microsomes of human keratinocytes; test: Transport of lipids (choline), direct treatment of isolated microsomes; type: biochemical; settings: for Capture of [^3H]choline: DPA 1 mM
Description: 7.1—Assessment of the Rate of Transport of Macromolecules (Glucids, Lipids and Proteins) in a System of Isolated Microsomes. Direct Effect of the BB Product on Isolated Microsomes:
The microsomes of human keratinocytes form a membrane fraction obtained by high-speed differential centrifugation of a cell homogenate. This preparation of microsomes requires the addition of exogenous cofactors such as NADPH.
7.1.2—Transport of Lipids
as §1
The protein assay was carried out following the BRADFORD method. The increase in absorbance at 595 nm, determined with a spectrophotometer, is proportional to the protein concentration.

[4] = tested on: reconstructed melanized human epidermis; test: Pigmentation test: biochemical quantification of the melanic content; type: cell-based; settings: α-MSH 100 nM
Description: 1. —Materials and Methods
The BB product is diluted in ethanol then incorporated into a cosmetic formulation.
a—BB product incorporated in formulation at 0.05%
b—BB product incorporated in formulation at 0.15%
c—BB product incorporated in formulation at 0.30%
They are conserved at 4° C. until use thereof.
2. —Biochemical Assessment
At the end of the incubation, the melanin contained in cell lysates was quantified by a spectrophotometrical method. A range of melanin was carried out in parallel with the assay.
The results are expressed in […] of melanin per ml of lysate of the cell carpets (average +/−standard deviation SD).
The statistical significance of the observed differences between the conditions <<treated >> and <<controls >> was assessed by variance analysis to a factor (One Way ANOVA) followed by a test of Bonferroni t-test (*:p<0.05;**:p<0.01).

[5] = tested on: reconstructed melanized human epidermal skins; test: Pigmentation test: melanic content by image analysis (Fontana Masson); type: cell-based; settings: WITHOUT UV; α-MSH 100 nM
Description: 3. —Histological Assessment
The epidermis skins ware fixed in formaldehyde from the end of incubation, then embedded in paraffin blocs. Subsequently sections of 4 μm thickness were cut.
Said slides by condition were carried out with a magnification ×400. The visualisable melanin on these slides was quantified by image analysis using the Image J program.
The results are expressed in form of the surface occupied by the melanin (number of pixels the grey scale of which is between 0 and 100; 0=black/255=white) in each slide (average +/−standard deviation, SD).
The statistical significance of the noted differences between the treated conditions and controls was assessed by a Student's test (*: p<0.05, **: p<0.01; ***: p<0.001).

CN(C)CCOC(c1ccccc1)c1ccccc1 [DPA, Diphenhydramin]
Capture of [^3H]choline ([1]; 30 s): 55 pmol/mg of proteins | Capture of [^3H]choline ([1]; 60 s): 79 pmol/mg of proteins | Capture of [^3H]choline ([1]; 120 s): 119 pmol/mg of proteins | rate of transport of lipids (in words) ([1]; Diphenhydramin 1 mM alone): strongly inhibits | Capture of [^3H]choline ([2]; 30 s): 92 pmol/mg proteins | Capture of [^3H]choline ([2]; 60 s): 115 pmol/mg proteins | Capture of [^3H]choline ([2]; 90 s): 143 pmol/mg proteins | Capture of [^3H]choline ([2]; 120 s): 156 pmol/mg proteins | rate of transport of lipids (in words) ([2]; Diphenhydramin 1 mM alone): moderately inhibits | Capture of [^3H]choline ([3]; 30 s): 74 pmol/mg proteins | Capture of [^3H]choline ([3]; 60 s): 105 pmol/mg proteins | Capture of [^3H]choline ([3]; 90 s): 132 pmol/mg proteins | Capture of [^3H]choline ([3]; 120 s): 142 pmol/mg proteins | rate of transport of lipids (in words) ([3]; Diphenhydramin 1 mM alone): strongly inhibits

α-MSH
Melanin, % medium alone ([4]; +UVA): 141% | Melanin, Average ([4]; +UVA): 96.1 µg/mL | Melanin, single values ([4]; +UVA): 95.6 µg/mL and 84.7 µg/mL and 107.9 µg/mL | Melanin, % medium alone ([4]; +UVB): 128% | Melanin, Average ([4]; +UVB): 106.5 µg/mL | Melanin, single values ([4]; +UVB): 99.5 µg/mL and 115.5 µg/mL and 104.6 µg/mL | Melanin, % medium alone ([4]; WITHOUT UV): 141% | Melanin, Average ([4]; WITHOUT UV): 80.7 µg/mL | Melanin, single values ([4]; WITHOUT UV): 70.3 µg/mL and 86.9 µg/mL and 85 µg/mL | Surface occupied by the melanin, % medium alone [5]: 208% | Surface occupied by the melanin, Average [5]: 40277.8 pixels
